This is an account of results in patent publication US8293724B2, “Therapeutic applications of fatty acid amide hydrolase inhibitors” (The United States of America, as represented by the …, priority 2007, dated 2012).

For one data set, the target named is T1, FAAH (Mus musculus, UniProt O08914).
T1 construct: the brain and liver removed, and tissue homogenates prepared as described above; from tissue; host or cells: mouse brain and liver homogenates after in vivo dosing
T1 sequence (O08914 1-579): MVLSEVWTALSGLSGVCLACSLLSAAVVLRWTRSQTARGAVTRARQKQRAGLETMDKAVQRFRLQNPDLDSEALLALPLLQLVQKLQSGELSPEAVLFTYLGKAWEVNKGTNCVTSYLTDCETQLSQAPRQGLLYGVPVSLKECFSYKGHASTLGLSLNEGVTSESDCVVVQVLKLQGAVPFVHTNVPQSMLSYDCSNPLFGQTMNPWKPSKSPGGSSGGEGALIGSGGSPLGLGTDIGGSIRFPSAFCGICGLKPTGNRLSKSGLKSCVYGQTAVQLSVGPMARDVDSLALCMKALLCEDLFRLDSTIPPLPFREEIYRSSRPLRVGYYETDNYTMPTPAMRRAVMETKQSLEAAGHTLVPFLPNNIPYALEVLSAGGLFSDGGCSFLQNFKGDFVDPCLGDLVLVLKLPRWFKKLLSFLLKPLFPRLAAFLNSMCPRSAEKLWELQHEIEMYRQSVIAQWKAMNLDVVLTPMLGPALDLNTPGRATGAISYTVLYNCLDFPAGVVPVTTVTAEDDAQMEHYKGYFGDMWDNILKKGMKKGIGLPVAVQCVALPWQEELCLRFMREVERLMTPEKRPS
Kind of data set: FAAH activity in brain and liver homogenates following in vivo administration. Details: species or system mice. As to the method:
For the experiments illustrated in FIG. 3, FAAH activity was assessed through a different method not requiring TLC separation, as described by Jonsson et al: Br. J. Pharmacol. 133:1263-1275, 1997. […] The mice were sacrificed one hour later, the brain and liver removed, and tissue homogenates prepared as described above. [^3H]Anandamide labeled on the ethanolamide moiety was added to the homogenate and incubated at 37° C. for 10 min. The homogenate was then extracted twice with chloroform:methanol 1:1 and the radioactivity in the aqueous phase (containing the released ethanolamide) was counted.

The subject of another data set is conscious SHR. Kind of data set: Blood pressure and heart rate in conscious SHR. In kind it is in vivo, rat. The following applies: versus dosage.
A further data set deals with CB2 cannabinoid receptor (Homo sapiens, UniProt P34972). Kind of data set: Affinity for the CB2 cannabinoid receptor. Format: binding.
In data set [1] the test system is spontaneously hypertensive rat (SHR). Kind of data set: Hemodynamic measurements in anesthetized spontaneously hypertensive rats. Format: in vivo. As to the method: Anandamide, the CB1 receptor antagonist AM251, and the anandamide transport inhibitors AM404 and OMDM-2 were obtained from Tocris; and the CB1 antagonist SR141716 and the CB2 antagonist SR144528 were from the National Institute on Drug Abuse drug supply program. Drugs were mixed in corn oil and sonicated for 5 minutes at 4° C. The mixture was added to 4 parts of Pluronic F68 (Sigma-Aldrich) solution (40 mg/mL) dissolved in water and sonicated to obtain a stable suspension for bolus intravenous injections.
Rats were obtained from Harlan (Indianapolis, Ind.). Male, 8- to 10-month-old SHR, age-matched male Wistar-Kyoto rats (WKY), and 8- to 10-week-old male Sprague-Dawley rats were maintained on standard rat chow and water ad libitum. Dahl salt-sensitive and salt-resistant rats (male, Rapp strain, 6 weeks old) were maintained for 4 weeks on rat chow containing either 0.12% or 8% NaCl. […] Hypertension was induced in Sprague-Dawley rats by chronic infusion of angiotensin II (60 ng/min) via an osmotic minipump (Imig et al. Hypertension 2002; 39: 690-694. Rats were used 10 to 12 days after implantation of the minipump.
For hemodynamic measurements, rats were anesthetized with pentobarbital sodium (60 mg/kg IP) and tracheotomized to facilitate breathing. Animals were placed on controlled heating pads, and core temperature, measured via a rectal probe, was maintained at 37° C. A microtip pressure-volume catheter (SPR-838; Millar Instruments) was inserted into the right carotid artery and advanced into the left ventricle (LV) under pressure control as described previously. Polyethylene cannulae (P50) were inserted into the right femoral artery and vein for measurement of mean arterial pressure (MAP) and administration of drugs, respectively. […] Heart rate, maximal LV systolic pressure, MAP, and maximal slope of systolic pressure increment (+dP/dt) were computed with a cardiac pressure-volume analysis program (PVAN2.9; Millar). Cardiac output calculated and corrected according to in vitro and in vivo volume calibrations with PVAN2.918 was normalized to body weight (cardiac index [CI]). Total peripheral resistance index (TPRI) was calculated by the equation TPRI=MAP/CI. In 3 experiments, drugs were microinjected into the fourth cerebral ventricle as described by Ramirez-Gonzalez et al. Circ Res. 1983; 53, 150-157.
Time-dependent variables were analyzed by ANOVA followed by the Dunnett post hoc test. In other cases, the Student t test was used, as appropriate. Values with P<0.05 were considered statistically significant.

In data set [2] the test system is male DIO mice (wild-type C57Bl6/J on high-fat diet). The experiment in a line: Intraperitoneal glucose tolerance test in wild-type mice with diet-induced obesity. In kind it is in vivo. The note with it: AM3506 1 mg/kg i.p., 60 min before glucose 1.5 g/kg i.p., 1 mg/kg. Here is the method: Male C57Bl6/J mice, wild-type or liver-specific CB1 receptor knockout, were kept on a diet containing 60% of calories as fat (Research Diets Inc) for 14 weeks, by which time both strains have become fat due to increased adipose mass. […] Sixty minutes later the mice received 1.5 g/kg glucose i.p. and blood glucose levels were monitored for 2 hours.

For another data set, the system named is anandamide transporter. Kind of data set: Inhibition of the anandamide transporter (anandamide uptake). Format: cell-based. The following applies: concentrations of up to 20 μM.
The next data set concerns the target CB1 cannabinoid receptor (Homo sapiens, UniProt P21554). The experiment in a line: Affinity for the CB1 cannabinoid receptor. In kind it is binding.
The mark [3] stands for this setting: AM3506 1 mg/kg versus URB597 10 mg/kg.
The mark [4] stands for this setting: AM3506 bolus 1 mg/kg, anesthetized SHR, FIG. 7.

Sequence of CB1 cannabinoid receptor (P21554 whole entry): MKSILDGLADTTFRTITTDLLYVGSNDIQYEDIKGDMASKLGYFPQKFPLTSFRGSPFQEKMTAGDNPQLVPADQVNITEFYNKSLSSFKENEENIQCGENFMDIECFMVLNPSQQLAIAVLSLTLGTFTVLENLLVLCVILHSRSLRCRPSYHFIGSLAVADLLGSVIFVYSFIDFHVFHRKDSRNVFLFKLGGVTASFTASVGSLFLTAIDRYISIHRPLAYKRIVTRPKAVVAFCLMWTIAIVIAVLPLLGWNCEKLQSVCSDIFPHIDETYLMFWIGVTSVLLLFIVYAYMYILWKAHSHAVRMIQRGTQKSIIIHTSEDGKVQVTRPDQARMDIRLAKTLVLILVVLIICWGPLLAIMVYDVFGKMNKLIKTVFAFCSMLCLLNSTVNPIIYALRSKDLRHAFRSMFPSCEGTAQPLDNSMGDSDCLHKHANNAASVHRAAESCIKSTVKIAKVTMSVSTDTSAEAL
Sequence of CB2 cannabinoid receptor (P34972 whole entry): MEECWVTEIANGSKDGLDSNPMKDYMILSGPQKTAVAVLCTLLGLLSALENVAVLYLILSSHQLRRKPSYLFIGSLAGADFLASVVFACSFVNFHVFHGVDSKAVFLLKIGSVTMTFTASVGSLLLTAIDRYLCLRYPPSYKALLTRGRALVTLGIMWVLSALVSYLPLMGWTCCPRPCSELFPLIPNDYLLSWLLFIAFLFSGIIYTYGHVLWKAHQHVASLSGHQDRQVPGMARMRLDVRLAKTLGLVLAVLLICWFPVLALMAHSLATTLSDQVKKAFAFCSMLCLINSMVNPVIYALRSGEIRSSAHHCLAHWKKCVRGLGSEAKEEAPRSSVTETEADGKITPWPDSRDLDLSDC

What is called Ki is a measure of affinity in units of concentration, obtained from inhibition or displacement. The low end stands for tighter binding, the high end for weaker binding. As to `O=S(=O)(F)CCCCCc1ccc(O)cc1` [AM3506], the “inhibition of FAAH in liver” value at FAAH (AM3506 1 mg/kg) is reported as “devoid of inhibitory potency in liver”. Also, the “dose equivalence in inhibition of FAAH in brain” value at FAAH (setting [3]) is listed as “equieffective with 10 mg/kg URB597”. The MBP entry with conscious SHR (n=4, FIG. 4A) is listed as “decrease MBP”. In the data set on conscious SHR (n=4, FIG. 5A), the heart rate entry is given as “moderate bradycardia only at 1 mg/kg dose”. This compound gave a Ki at CB2 cannabinoid receptor of 5770 nM. Also, the “lowering of blood pressure” value in data set [1] (AM3506 0.3 mg/kg i.v., SHR) was 90 mmHg. Also, the “dose equivalence in producing hypotension” value in data set [1] (setting [3]) is reported as “equieffective with 10 mg/kg URB597”. Moreover, in data set [1] (setting [4]), the cardiac contractility result is listed as “significantly decreases”, the cardiac output entry was “reduced”, the “left ventricular end systolic pressure (LVESP)” value was “decreases” and the “maximal slope of the systolic pressure increment (dP/dt)” value is “decrease”. Moreover, in data set [1] (setting [4]), the stroke volume entry is given as “reduced”. In addition, the blood pressure effect result in data set [1] (AM3506 intravenously 1 mg/kg in 50 μl, anesthetized SHR, FIG. 1) is reported as “hypotensive effect”. In data set [2], the glucose intolerance entry is recorded as “had no such effect”. The “inhibition of the anandamide transporter” value in the data set on anandamide transporter is recorded as “did not inhibit”. Also, the Ki on CB1 cannabinoid receptor was determined as 192 nM.
